The values below are quoted from earlier work in patent publication US20240358668A1, “METHODS AND CO[…] AM[…] CARD[…] USING (R)-2-AMINO-3-PH[…]” (AXSOME THERAPEUTICS, INC., priority 2021, published 2024).

Each structure is given as a SMILES string.

For this data set the following is noted: prescribing information; or potentially higher; cited from earlier work.

As to `COC(=O)[C@H](c1ccccc1)[C@H]1CCCCN1` [Focalin, dexmethylphenidate], the “increase in blood pressure” value was 2-4 mm Hg.
